From US9241487B2, “Pyrimidine derivatives and use thereof as pesticides” (BAYER INTELLECTUAL PROPERTY GMBH, priority 2010, dated 2016)

What was measured:
[1] = log P by HPLC on reversed-phase columns (C 18), EEC directive 79/831 Annex V.A8; assay type: physicochemical; conditions: reversed-phase HPLC columns (C 18); method [a]: LC-MS, acidic range pH 2.7, 0.1% aqueous formic acid/acetonitrile, gradient 10% to 95% acetonitrile
Method: The log P values were measured according to EEC directive 79/831 Annex V.A8 by HPLC (High Performance Liquid Chromatography) on reversed-phase columns (C 18), using the methods below: [a] The LC-MS determination in the acidic range is carried out at pH 2.7 with 0.1% aqueous formic acid and acetonitrile (contains 0.1% formic acid) as mobile phases; linear gradient from 10% acetonitrile to 95% acetonitrile.

[2] = system: Sphaerotheca fuliginea; assay: Sphaerotheca test (cucumber)/protective; assay type: in vivo; conditions: Podosphaera fuliginea, 168 h, cucumber plants, protective spray, evaluation 7 days after inoculation, read-out: Efficacy (%)
Method: Sphaerotheca Test (Cucumber)/Protective
(§1) Solvent: 49 parts by weight of N,N-dimethylformamide
(§2) Emulsifier: 1 part by weight of alkylaryl polyglycol ether
To produce a suitable preparation of active compound, 1 part by weight of active compound is mixed with the stated amounts of solvent and emulsifier, and the concentrate is diluted with water to the desired concentration. To test for protective activity, young cucumber plants are sprayed with the preparation of active compound at the stated application rate. 1 day after the treatment, the plants are inoculated with a spore suspension of Sphaerotheca fuliginea. The plants are then placed in a greenhouse at 70% relative air humidity and a temperature of 23° C. Evaluation follows 7 days after the inoculation. 0% means an efficacy which corresponds to that of the control, whereas an efficacy of 100% means that no infection is observed. In this test, the following compounds according to the invention show, at an active compound concentration of 500 ppm, an efficacy of 70% or more: […]

[3] = system: Alternaria solani; assay: Alternaria test (tomato)/protective; assay type: in vivo; conditions: 168 h, tomato plants, protective spray, evaluation 7 days after inoculation, read-out: Efficacy (%)
Method: Alternaria Test (Tomato)/Protective
as §1, §2
To produce a suitable preparation of active compound, 1 part by weight of active compound is mixed with the stated amounts of solvent and emulsifier, and the concentrate is diluted with water to the desired concentration. To test for protective activity, young tomato plants are sprayed with the preparation of active compound at the stated application rate. 1 day after the treatment, the plants are inoculated with a spore suspension of Alternaria solani and then remain at 100% rd. humidity and 22° C. for 24 h. The plants then remain at 96% rd. atmospheric humidity and a temperature of 20° C. Evaluation is carried out 7 days after the inoculation. 0% means an efficacy which corresponds to that of the control, whereas an efficacy of 100% means that no infection is observed.
(§3) In this test, the following compounds according to the invention show, at an active compound concentration of 500 ppm, an efficacy of 70% or more: […]

[4] = system: Leptosphaeria nodorum; assay: Leptosphaeria nodorum test (wheat)/protective; assay type: in vivo; conditions: Parastagonospora nodorum, wheat plants, protective spray, evaluation 7-9 days after inoculation, read-out: Efficacy (%)
Method: Leptosphaeria nodorum Test (Wheat)/Protective
as §1, §2
To produce a suitable preparation of active compound, 1 part by weight of active compound is mixed with the stated amounts of solvent and emulsifier, and the concentrate is diluted with water to the desired concentration. To test for protective activity, young wheat plants are sprayed with the preparation of active compound at the stated application rate. 1 day after the treatment, the plants are inoculated with an aqueous spore suspension of Leptosphaeria nodorum and then remain at 100% relative atmospheric humidity and 22° C. for 48 h. The plants are then placed in a greenhouse at 90% relative atmospheric humidity and a temperature of 22° C. Evaluation is carried out 7-9 days after the inoculation. 0% means an efficacy which corresponds to that of the control, whereas an efficacy of 100% means that no infection is observed. In this test, the following compounds according to the invention show, at an active compound concentration of 500 ppm, an efficacy of 70% or more: […]

[5] = system: Blumeria graminis fsp. hordei; assay: Blumeria graminis test (barley)/protective; assay type: in vivo; conditions: 168 h, protective spray, evaluation 7 days after inoculation, read-out: Efficacy (%)
Method: Blumeria graminis Test (Barley)/Protective
(§4) Solvent: 49 parts by weight of N,N-dimethylacetamide
as §2
To produce a suitable preparation of active compound, 1 part by weight of active compound is mixed with the stated amounts of solvent and emulsifier, and the concentrate is diluted with water to the desired concentration. To test for protective activity, young plants are sprayed with the preparation of active compound at the stated application rate. After the spray coating has dried on, the plants are dusted with spores of Blumeria graminis fsp. hordei. The plants are placed in a greenhouse at a temperature of about 18° C. and a relative air humidity of about 80% to promote the development of mildew pustules. Evaluation follows 7 days after the inoculation. 0% means an efficacy which corresponds to that of the control, whereas an efficacy of 100% means that no infection is observed.
as §3

[6] = system: Septoria tritici; assay: Septoria tritici test (wheat)/protective; assay type: in vivo; conditions: Zymoseptoria tritici, 504 h, protective spray, evaluation 21 days after inoculation, read-out: Efficacy (%)
Method: Septoria tritici Test (Wheat)/Protective
as §4, §2
(§5) To produce a suitable preparation of active compound, 1 part by weight of active compound is mixed with the stated amounts of solvent and emulsifier, and the concentrate is diluted with water to the desired concentration. To test for protective activity, young plants are sprayed with the preparation of active compound at the stated application rate. After the spray coating has dried on, the plants are sprayed with a spore suspension of Septoria tritici. The plants remain in an incubation cabin at 20° C. and 100% relative atmospheric humidity for 48 hours. Thereafter, the plants are placed under a translucent hood at 15° C. and 100% relative air humidity for a further 60 hours. The plants are placed in a greenhouse at a temperature of about 15° C. and a relative atmospheric humidity of about 80%. Evaluation follows 21 days after the inoculation. 0% means an efficacy which corresponds to that of the control, whereas an efficacy of 100% means that no infection is observed.
as §3

[7] = system: Venturia inaequalis; assay: Venturia test (apple)/protective; assay type: in vivo; conditions: 240 h, protective spray, evaluation 10 days after inoculation, read-out: Efficacy (%)
Method: Venturia Test (Apple)/Protective
(§6) Solvents: 24.5 parts by weight of acetone
(§7) • 24.5 parts by weight of dimethylacetamide Emulsifier: 1 part by weight of alkylaryl polyglycol ether
(§8) To produce a suitable preparation of active compound, 1 part by weight of active compound is mixed with the stated amounts of solvent and emulsifier, and the concentrate is diluted with water to the desired concentration. To test for protective activity, young plants are sprayed with the preparation of active compound at the stated application rate. After the spray coating has dried on, the plants are inoculated with an aqueous conidia suspension of the apple scab pathogen Venturia inaequalis and then remain in an incubation cabin at approx. 20° C. and 100% relative air humidity for 1 day. The plants are then placed in the greenhouse at about 21° C. and a relative atmospheric humidity of about 90%. Evaluation follows 10 days after the inoculation. 0% means an efficacy which corresponds to that of the control, whereas an efficacy of 100% means that no infection is observed.
(§9) In this test, the following compounds according to the invention show, at an active compound concentration of 100 ppm, an efficacy of 70% or more: […]

[8] = system: Uromyces appendiculatus; assay: Uromyces test (bean)/protective; assay type: in vivo; conditions: 240 h, protective spray, evaluation 10 days after inoculation, read-out: Efficacy (%)
Method: Uromyces Test (Bean)/Protective
as §6, §7
as §8, with “spore” for “conidia”, “bean rust” for “apple scab”, “Uromyces appendiculatus” for “Venturia inaequalis”, “about” for “approx.”, “atmospheric” for “air”
as §9

[9] = system: Puccinia triticina; assay: Puccinia triticina test (wheat)/protective; assay type: in vivo; conditions: 192 h, protective spray, evaluation 8 days after inoculation, read-out: Efficacy (%)
Method: Puccinia triticina Test (Wheat)/Protective
as §4, §2
as §5, with “sprayed with spores with a spore” for “sprayed with a spore”, “suspension of Puccinia triticina. The plants” for “suspension of Septoria tritici. The plants”, “48 hours. The plants” for “48 hours. Thereafter, the plants are placed under a translucent hood at 15° C. and 100% relative air humidity for a further 60 hours. The plants”, “of about 20° C. and” for “of about 15° C. and”, “Evaluation follows 8 days after” for “Evaluation follows 21 days after”
as §3

chromatographic logP [1]	Structure (SMILES)	pest or weed control at 500 ppm [2] [%]	pest or weed control at 500 ppm [3] [%]	pest or weed control at 500 ppm [4] [%]	pest or weed control at 500 ppm [5] [%]	pest or weed control at 500 ppm [6] [%]	pest or weed control at 100 ppm [7] [%]	pest or weed control at 100 ppm [8] [%]	pest or weed control at 500 ppm [9] [%]
3.28	CC(C)C(O)(CSc1ccc(SC(F)(F)F)cc1)c1cncnc1 (centres unmarked) [Compound 3]	94	95	90	100	75	–	–	–
–	CC(C)(C)C(O)(CSc1ccc(SC(F)(F)F)cc1)c1cncnc1 (centres unmarked) [Compound 4]	91	95	70	89	100	–	–	–
–	CC(C)(C)C(O)(CCc1ccc(SC(F)(F)F)cc1)c1cncnc1 (centres unmarked) [Compound 7]	95	94	95	–	–	–	–	–
–	OC(c1cncnc1)(c1ccc(F)cc1F)C1(Oc2ccc(SC(F)(F)F)cc2)CC1 (centres unmarked) [Compound 8]	100	80	–	–	–	–	–	–
–	CC(C)(Oc1ccc(OC(F)(F)F)cc1)C(C)(O)c1cncnc1 (centres unmarked) [Compound 9]	95	100	100	100	90	94	100	100
–	CC(C)(Sc1ccc(OC(F)(F)F)cc1)C(C)(O)c1cncnc1 (centres unmarked) [Compound 10]	–	100	100	–	–	–	–	–
–	CC(C)(Sc1ccc(SC(F)(F)F)cc1)C(C)(O)c1cncnc1 (centres unmarked) [Compound 11]	–	100	95	–	–	–	–	–
–	CC#CC(O)(c1cncnc1)C(C)(C)Sc1ccc(OC(F)(F)F)cc1 (centres unmarked) [Compound 13]	76	100	95	–	–	–	–	–
–	CC#CC(O)(c1cncnc1)C(C)(C)Oc1ccc(OC(F)(F)F)cc1 (centres unmarked) [Compound 14]	95	94	100	100	90	–	–	89
–	CC#CC(O)(c1cncnc1)C(C)(C)Sc1ccc(SC(F)(F)F)cc1 (centres unmarked) [Compound 15]	88	94	95	–	–	–	–	–
–	C=CCC(O)(c1cncnc1)C(C)(C)Sc1ccc(SC(F)(F)F)cc1 (centres unmarked) [Compound 16]	–	100	70	–	–	–	–	–
–	OC(COc1ccc(OC(F)(F)F)cc1)(c1cncnc1)C1(Cl)CC1 (centres unmarked) [Compound 20]	75	100	95	–	–	100	98	–
–	OC(COc1ccc(SC(F)(F)F)cc1)(c1cncnc1)C1(Cl)CC1 (centres unmarked) [Compound 21]	100	95	–	–	–	–	–	–
–	CC(C)(Oc1cccc(OC(F)(F)F)c1)C(C)(O)c1cncnc1 (centres unmarked) [Compound 22]	95	100	100	–	–	94	–	–
–	CC#CC(O)(c1cncnc1)C(C)(C)Oc1cccc(OC(F)(F)F)c1 (centres unmarked) [Compound 23]	88	75	70	–	–	–	–	–
–	CC(C)C(O)(c1cncnc1)C(C)(C)Oc1cccc(OC(F)(F)F)c1 (centres unmarked) [Compound 24]	83	95	80	–	–	–	–	–
–	CC(C)(Oc1ccccc1OC(F)(F)F)C(C)(O)c1cncnc1 (centres unmarked) [Compound 25]	–	90	–	–	–	–	–	–
–	CC(C)C(O)(c1cncnc1)C(C)(C)Oc1ccccc1OC(F)(F)F (centres unmarked) [Compound 27]	88	–	–	–	–	–	–	–
3.47	CC(C)(C)C(O)(COc1ccc(OC(F)(F)F)cc1Cl)c1cncnc1 (centres unmarked) [Compound 29]	100	78	75	–	–	–	–	–
3.04	Cc1cc(OCC(O)(c2cncnc2)C(C)(C)C)ccc1SC(F)(F)F (centres unmarked) [Compound 32]	95	–	–	–	–	–	–	–
2.63	CC(C)(C)C(O)(COc1ccc(OC(F)F)cc1)c1cncnc1 (centres unmarked) [Compound 34]	95	95	100	–	–	–	–	–
